The compounds below were run against T1, PRMT5-MEP50 enzyme complex (Homo sapiens, UniProt O14744) (assay: In vitro PRMT5 enzyme activity assay (methylation of histone H4 arginine H4R3, ELISA absorbance at 450 nm)). Conditions: S-adenosylmethionine, histone H4 peptide, 2 hours at room temperature, 8 points 10 μM to 0.128 nM.
T1 construct: purchased BPS Bioscience (USA) 51045
Format: biochemical
Experimental: Method for Measuring Enzyme Activity
In vitro assay: PRMT5-MEP50 enzyme complex, cofactor S-adenosylmethionine (SAM) and histone H4 peptide were reacted in vitro, and methylation of arginine (H4R3) —which is the third amino acid of histone H4—was measured in order to measure the enzyme activity of PRMT5.
Reagents: PRMT5-MEP50 enzyme complex (Catalog No. 51045), blocking buffer (52100-B), histone methyltransferase reaction buffer 2 (4×HMT assay buffer 2, Catalog No. 52170), and primary antibody (primary antibody 4-3, Catalog No. 52150) were purchased from BPS Bioscience (USA). The histone H4 peptide (1-20 amino acids) was custom made by Komabiotech (Korea) and used. S-adenosylmethionine was purchased from NEB (New England Biolabs, USA, Catalog No. B9003S). Plates for coating histone H4 peptide, washing buffer and color development reagent were purchased from the following vendors: Plate (Immobilizer™-Amino Plate, NUNC, Denmark, Catalog No. 436023), carbonate-bicarbonate buffer (Sigma-Aldrich, USA, Catalog No. C3041), washing buffer (10×TBST, Biosesang, Korea, Catalog No. T2005), TMB ELISA substrate (Abcam, UK, Catalog No. ab210902), horseradish peroxidase (HRP)-conjugated antibody (Abcam, UK, Catalog No. ab6721).
Experimental procedure: The histone H4 peptide was diluted with carbonate-bicarbonate buffer and prepared to 100 μg/mL, and then dispensed onto the plate per 100 μL and reacted at 37° C. for 1 hour. PRMT5-MEP50 enzyme complex and S-adenosylmethionine were diluted with histone methyltransferase reaction buffer to prepare 5 μg/mL and 2 μM, respectively, and then 20 μL of PRMT5-MEP50 enzyme complex and 25 μL of S-adenosylmethionine were dispensed onto the plate prepared above. 5 μL of the compound diluted with 10% dimethyl sulfoxide solution was added thereto and reacted at room temperature for 2 hours (final volume=50 μL). The concentration of the compound was diluted 1:5 from 10 μM until the lowest concentration of 0.128 nM, and 8 points were used for the test. After preparing the primary antibody by diluting 1:2000 with blocking buffer, 100 μL was added to the plate and reacted at room temperature for 1 hour. After preparing horseradish peroxidase-conjugated antibody by diluting 1:10,000 with blocking buffer, 100 μL was added to the plate and reacted at room temperature for 1 hour. 100 μL of TMB substrate was added and reacted for 3 minutes at room temperature, and 100 μL of 1 N sulfuric acid was then added to terminate the reaction. Then, the absorbance at 450 nm was measured to calculate the IC50 value of the compound. (+++: 1 to 100 nM, ++: greater than 100 to 1,000 nM, +: greater than 1,000 to 10,000 nM)

T1 sequence (O14744 2-637 limits assumed): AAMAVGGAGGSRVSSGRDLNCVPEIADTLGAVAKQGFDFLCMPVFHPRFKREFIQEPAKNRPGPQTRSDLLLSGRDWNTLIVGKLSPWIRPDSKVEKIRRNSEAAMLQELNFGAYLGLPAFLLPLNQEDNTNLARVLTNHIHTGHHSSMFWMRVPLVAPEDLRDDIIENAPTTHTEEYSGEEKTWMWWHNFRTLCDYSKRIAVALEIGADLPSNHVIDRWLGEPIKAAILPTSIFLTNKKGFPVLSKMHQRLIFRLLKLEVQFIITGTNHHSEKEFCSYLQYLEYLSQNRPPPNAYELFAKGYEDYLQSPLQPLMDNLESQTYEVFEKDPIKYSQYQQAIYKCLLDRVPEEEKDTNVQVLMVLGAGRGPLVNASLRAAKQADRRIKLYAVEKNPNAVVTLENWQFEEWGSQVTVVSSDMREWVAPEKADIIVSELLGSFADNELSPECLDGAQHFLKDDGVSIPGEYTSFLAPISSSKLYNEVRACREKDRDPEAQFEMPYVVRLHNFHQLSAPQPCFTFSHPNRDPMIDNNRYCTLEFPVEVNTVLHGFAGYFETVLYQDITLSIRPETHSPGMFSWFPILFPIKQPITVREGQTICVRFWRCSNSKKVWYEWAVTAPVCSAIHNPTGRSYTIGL
T1 sequence (Q9BQA1 2-342 partner limits assumed): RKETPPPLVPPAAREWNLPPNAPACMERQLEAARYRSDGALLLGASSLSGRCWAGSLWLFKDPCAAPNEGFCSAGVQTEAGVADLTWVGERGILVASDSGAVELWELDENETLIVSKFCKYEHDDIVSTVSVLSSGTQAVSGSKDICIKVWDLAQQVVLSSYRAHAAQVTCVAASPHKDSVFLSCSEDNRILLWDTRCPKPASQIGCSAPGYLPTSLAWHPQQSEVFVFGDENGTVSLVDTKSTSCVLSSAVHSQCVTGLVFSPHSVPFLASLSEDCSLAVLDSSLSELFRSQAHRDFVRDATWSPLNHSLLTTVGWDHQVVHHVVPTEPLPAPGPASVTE

| SMILES | IC50 [nM] |
| --- | --- |
| O=C1c2ccc(NCC3CCNCC3)cc2CCN1C[C@H](O)CN1CCc2ccccc2C1 [Example 31, 2-[(2R)-3-(3,4-dihydro-1H-isoquinolin-2-yl)-2-hydroxy-propyl]-6-(4-piperidylmethylamino)-3,4-dihydroisoquinolin-1-one] | 1 to 100 |
| CC(=O)N1CCC(Nc2ccc3c(c2)CCN(C[C@H](O)CN2CCc4ccccc4C2)C3=O)CC1 [Example 32, 6-[(1-acetyl-4-piperidyl)amino]-2-[(2R)-3-(3,4-dihydro-1H-isoquinolin-2-yl)-2-hydroxy-propyl]-3,4-dihydroisoquinolin-1-one] | 1 to 100 |
| O=C(CN1CCOCC1)Nc1ccc2c(c1)CCN(C[C@H](O)CN1CCc3ccccc3C1)C2=O [Example 33, N-[2-[(2R)-3-(3,4-dihydro-1H-isoquinolin-2-yl)-2-hydroxy-propyl]-1-oxo-3,4-dihydroisoquinolin-6-yl]-2-morpholino-acetamide] | 1 to 100 |
| O=C1c2ccc(NC3CCNCC3)cc2CCN1C[C@H](O)CN1CCc2ccccc2C1 [Example 34, 2-[(2R)-3-(3,4-dihydro-1H-isoquinolin-2-yl)-2-hydroxy-propyl]-6-(4-piperidylamino)-3,4-dihydroisoquinolin-1-one] | 1000 to 10000 |
| O=C1c2ccc(N3CCC(CO)CC3)cc2CCN1C[C@H](O)CN1CCc2ccccc2C1 [Example 35, 2-[(2R)-3-(3,4-dihydro-1H-isoquinolin-2-yl)-2-hydroxy-propyl]-6-[4-(hydroxymethyl)-1-piperidyl]-3,4-dihydroisoquinolin-1-one] | 1 to 100 |
| O=C1c2ccc(N3CCCC(CO)C3)cc2CCN1C[C@H](O)CN1CCc2ccccc2C1 (stereo partly drawn) [Example 36, 2-[(2R)-3-(3,4-dihydro-1H-isoquinolin-2-yl)-2-hydroxy-propyl]-6-[3-(hydroxymethyl)-1-piperidyl]-3,4-dihydroisoquinolin-1-one] | 1 to 100 |
| O=C1c2ccc(N3CCC(O)CC3)cc2CCN1C[C@H](O)CN1CCc2ccccc2C1 [Example 37, 2-[(2R)-3-(3,4-dihydro-1H-isoquinolin-2-yl)-2-hydroxy-propyl]-6-(4-hydroxy-1-piperidyl)-3,4-dihydroisoquinolin-1-one] | 1 to 100 |
| O=C1c2ccc(N3CCCC(O)C3)cc2CCN1C[C@H](O)CN1CCc2ccccc2C1 (stereo partly drawn) [Example 38, 2-[(2R)-3-(3,4-dihydro-1H-isoquinolin-2-yl)-2-hydroxy-propyl]-6-(3-hydroxy-1-piperidyl)-3,4-dihydroisoquinolin-1-one] | 100 to 1000 |
| O=C1c2ccc(N3CCOC3)cc2CCN1C[C@H](O)CN1CCc2ccccc2C1 [Example 39, 2-[(2R)-3-(3,4-dihydro-1H-isoquinolin-2-yl)-2-hydroxy-propyl]-6-oxazolidin-3-yl-3,4-dihydroisoquinolin-1-one] | 100 to 1000 |
| CC1COCCN1c1ccc2c(c1)CCN(C[C@H](O)CN1CCc3ccccc3C1)C2=O (stereo partly drawn) [Example 40, 2-[(2R)-3-(3,4-dihydro-1H-isoquinolin-2-yl)-2-hydroxy-propyl]-6-(3-methylmorpholin-4-yl)-3,4-dihydroisoquinolin-1-one] | 1000 to 10000 |
| O=C(CO)Nc1ccc2c(c1)CCN(C[C@H](O)CN1CCc3ccccc3C1)C2=O [Example 41, N-[2-[(2R)-3-(3,4-dihydro-1H-isoquinolin-2-yl)-2-hydroxy-propyl]-1-oxo-3,4-dihydroisoquinolin-6-yl]-2-hydroxy-acetamide] | 1 to 100 |
| CC(=O)Nc1ccc2c(c1)CCN(C[C@H](O)CN1CCc3ccccc3C1)C2=O [Example 42, N-[2-[(2R)-3-(3,4-dihydro-1H-isoquinolin-2-yl)-2-hydroxy-propyl]-1-oxo-3,4-dihydroisoquinolin-6-yl]acetamide] | 100 to 1000 |
| O=C1c2ccc(CN3CCOCC3)cc2CCN1C[C@H](O)CN1CCc2ccccc2C1 [Example 43, 2-[(2R)-3-(3,4-dihydro-1H-isoquinolin-2-yl)-2-hydroxy-propyl]-6-(morpholinomethyl)-3,4-dihydroisoquinolin-1-one] | 1000 to 10000 |
| O=C1c2ccc(N3CC4(COC4)C3)cc2CCN1C[C@H](O)CN1CCc2ccccc2C1 [Example 44, 2-[(2R)-3-(3,4-dihydro-1H-isoquinolin-2-yl)-2-hydroxy-propyl]-6-(2-oxa-6-azaspiro[3.3]heptan-6-yl)-3,4-dihydroisoquinolin-1-one] | 1 to 100 |
| O=C1c2ccc(N3CCOC3=O)cc2CCN1C[C@H](O)CN1CCc2ccccc2C1 [Example 45, 3-[2-[(2R)-3-(3,4-dihydro-1H-isoquinolin-2-yl)-2-hydroxy-propyl]-1-oxo-3,4-dihydroisoquinolin-6-yl]oxazolidin-2-one] | 100 to 1000 |
| O=C1c2ccc(N3CC(CO)C3)cc2CCN1C[C@H](O)CN1CCc2ccccc2C1 [Example 46, 2-[(2R)-3-(3,4-dihydro-1H-isoquinolin-2-yl)-2-hydroxy-propyl]-6-[3-(hydroxymethyl)azetidin-1-yl]-3,4-dihydroisoquinolin-1-one] | 100 to 1000 |
| C[C@H]1CN(c2ccc3c(c2)CCN(C[C@H](O)CN2CCc4ccccc4C2)C3=O)CCO1 [Example 47, 2-[(2R)-3-(3,4-dihydro-1H-isoquinolin-2-yl)-2-hydroxy-propyl]-6-[(2S)-2-methylmorpholin-4-yl]-3,4-dihydroisoquinolin-1-one] | 1 to 100 |
| COC1CCN(c2ccc3c(c2)CCN(C[C@H](O)CN2CCc4ccccc4C2)C3=O)CC1 [Example 48, 2-[(2R)-3-(3,4-dihydro-1H-isoquinolin-2-yl)-2-hydroxy-propyl]-6-(4-methoxy-1-piperidyl)-3,4-dihydroisoquinolin-1-one] | 1 to 100 |
| O=C1c2ccc(N3CCS(=O)(=O)CC3)cc2CCN1C[C@H](O)CN1CCc2ccccc2C1 [Example 49, 2-[(2R)-3-(3,4-dihydro-1H-isoquinolin-2-yl)-2-hydroxy-propyl]-6-(1,1-dioxo-1,4-thiazinan-4-yl)-3,4-dihydroisoquinolin-1-one] | 1 to 100 |
| O=C1c2ccc(NC3CCOC3)cc2CCN1C[C@H](O)CN1CCc2ccccc2C1 (stereo partly drawn) [Example 50, 2-[(2R)-3-(3,4-dihydro-1H-isoquinolin-2-yl)-2-hydroxy-propyl]-6-(tetrahydrofuran-3-ylamino)-3,4-dihydroisoquinolin-1-one] | 100 to 1000 |
| O=C1c2ccc(NC3COC3)cc2CCN1C[C@H](O)CN1CCc2ccccc2C1 [Example 51, 2-[(2R)-3-(3,4-dihydro-1H-isoquinolin-2-yl)-2-hydroxy-propyl]-6-(oxetan-3-ylamino)-3,4-dihydroisoquinolin-1-one] | 100 to 1000 |
| CC(=O)N1CCN(c2ccc3c(c2)CCN(C[C@H](O)CN2CCc4ccccc4C2)C3=O)CC1 [Example 52, 6-(4-acetylpiperazin-1-yl)-2-[(2R)-3-(3,4-dihydro-1H-isoquinolin-2-yl)-2-hydroxy-propyl]-3,4-dihydroisoquinolin-1-one] | 100 to 1000 |
| CC(C)(C)OC(=O)N1CCN(c2ccc3c(c2)CCN(C[C@H](O)CN2CCc4ccccc4C2)C3=O)CC1 [Example 53, tert-butyl 4-[2-[(2R)-3-(3,4-dihydro-1H-isoquinolin-2-yl)-2-hydroxy-propyl]-1-oxo-3,4-dihydroisoquinolin-6-yl]piperazine-1-carboxylate] | 1 to 100 |
| O=C1c2ccc(CN3CCCOCC3)cc2CCN1C[C@H](O)CN1CCc2ccccc2C1 [Example 54, 2-[(2R)-3-(3,4-dihydro-1H-isoquinolin-2-yl)-2-hydroxy-propyl]-6-(1,4-oxazepan-4-ylmethyl)-3,4-dihydroisoquinolin-1-one] | 1 to 100 |

From US12331035B2, “Bicyclic compound and use thereof” (SK BIOPHARMACEUTICALS CO., LTD., priority 2019, dated 2025)
